In US8906928B2, “Substituted pyrazolo-pyrrolo-pyridine-dione compounds” (ArQule, Inc., priority 2009, dated 2014):

What was measured:
Assay type in all cases: cell-based
[1] = test system: DLD-1; assay: MTS assay (cell growth inhibition), DLD-1; conditions: DLD-1 cells, 72 hours incubation with test compound; concentration not given
Experimental: (§1) Cells were maintained at 37° C., 5% CO2 in DMEM media supplemented with 1% fetal bovine serum, penicillin/streptomycin and fungizone (Invitrogen). Cells were seeded into 96-well tissue culture plates at 3000 per well and cultured at 37° C. for 18 hours. Test compounds were dissolved and diluted to 300× in DMSO then diluted 1:40 in DMEM. Cells were incubated with test compounds for 72 hours followed by incubation with tetrazolium compound (3-(4,5-dimethylthiazol-2-yl)-5-(3-carboxymethoxyphenyl)-2-(4-sulfophenyl)-2H-tetrazolium, inner salt; MTS) and the electron coupling reagent, phenazine methosulfate (PMS) for 4 hours. […] The ability of compounds to inhibit cell growth in this assay is correlated with the reduction of dehydrogenase enzyme activity found in metabolically active cells. The measurement of the absorbance of the formazan was assessed using an ENVISION™ (Perkin Elmer) microplate reader at 492 nm. The calculated IC50 value is the concentration of the test compound that causes a 50% decrease in the absorbance.

[2] = test system: Kato III; assay: MTS assay (cell growth inhibition), Kato III; conditions: Kato III cells, 72 hours incubation with test compound; concentration not given
Experimental: as §1

[3] = test system: MDA-MB; assay: MTS assay (cell growth inhibition), MDA-MB; conditions: MDA-MB cells, 72 hours incubation with test compound; concentration not given
Experimental: as §1

[4] = test system: NCI-H1299; assay: MTS assay (cell growth inhibition), NCI-H1299; conditions: NCI-H1299 cells, 72 hours incubation with test compound; concentration not given
Experimental: as §1

[5] = test system: PACA-2; assay: MTS assay (cell growth inhibition), PACA-2; conditions: PACA-2 cells, 72 hours incubation with test compound; concentration not given
Experimental: as §1

[6] = test system: PC-3; assay: MTS assay (cell growth inhibition), PC-3; conditions: PC-3 cells, 72 hours incubation with test compound; concentration not given
Experimental: as §1

Row | Structure (SMILES) | MTS CELL KILL DATA (% INHIBITION) DLD-1 [1] | MTS CELL KILL DATA (% INHIBITION) Kato III [2] | MTS CELL KILL DATA (% INHIBITION) MDA-MB [3] | MTS CELL KILL DATA (% INHIBITION) NCI-H1299 [4] | MTS CELL KILL DATA (% INHIBITION) PACA-2 [5] | MTS CELL KILL DATA (% INHIBITION) PC-3 [6]
1 | O=C1c2cnc3[nH]ncc3c2C(=O)N1CCOc1ccccc1Cl [Example 25, 7-[2-(2-chlorophenoxy)ethyl]pyrazolo[3,4-b]pyrrolo[3,4-d]pyridine-6,8(3H,7H)-dione] | C (C = <50% INHIBITION) | C (C = <50% INHIBITION) | A (A = 80-100% INHIBITION) | C (C = <50% INHIBITION) | C (C = <50% INHIBITION) | A (A = 80-100% INHIBITION)
2 | O=C1c2cnc3[nH]ncc3c2C(=O)N1CCSc1nc2ccccc2s1 [Example 32, 7-[2-(1,3-benzothiazol-2-ylthio)ethyl]pyrazolo[3,4-b]pyrrolo[3,4-d]pyridine-6,8(3H,7H)-dione] | C (C = <50% INHIBITION) | B (B = 50-79% INHIBITION) | C (C = <50% INHIBITION) | C (C = <50% INHIBITION) | C (C = <50% INHIBITION) | A (A = 80-100% INHIBITION)
3 | O=C1c2cnc3[nH]ncc3c2C(=O)N1Cc1c(F)ccc(F)c1Cl [Example 48, 7-(2-chloro-3,6-difluorobenzyl)pyrazolo[3,4-b]pyrrolo[3,4-d]pyridine-6,8(3H,7H)-dione] | C (C = <50% INHIBITION) | B (B = 50-79% INHIBITION) | A (A = 80-100% INHIBITION) | C (C = <50% INHIBITION) | B (B = 50-79% INHIBITION) | C (C = <50% INHIBITION)
4 | O=C1c2cnc3[nH]ncc3c2C(=O)N1CCc1ccncc1 [Example 36, 7-(2-pyridin-4-ylethyl)pyrazolo[3,4-b]pyrrolo[3,4-d]pyridine-6,8(3H,7H)-dione] | C (C = <50% INHIBITION) | C (C = <50% INHIBITION) | A (A = 80-100% INHIBITION) | C (C = <50% INHIBITION) | B (B = 50-79% INHIBITION) | A (A = 80-100% INHIBITION)
5 | CC(C)(C)c1ccc(-c2n[nH]c3ncc4c(c23)C(=O)N(CCc2ccccc2)C4=O)cc1 [Example 166, 1-(4-tert-butylphenyl)-7-(2-phenylethyl)pyrazolo[3,4-b]pyrrolo[3,4-d]pyridine-6,8(3H,7H)-dione] | A (A = 80-100% INHIBITION) | C (C = <50% INHIBITION) | A (A = 80-100% INHIBITION) | C (C = <50% INHIBITION) | B (B = 50-79% INHIBITION) | C (C = <50% INHIBITION)
6 | O=C1c2cnc3[nH]ncc3c2C(=O)N1Cc1cc(Cl)ccc1Cl [Example 61, 7-(2,5-dichlorobenzyl)pyrazolo[3,4-b]pyrrolo[3,4-d]pyridine-6,8(3H,7H)-dione] | B (B = 50-79% INHIBITION) | B (B = 50-79% INHIBITION) | A (A = 80-100% INHIBITION) | C (C = <50% INHIBITION) | C (C = <50% INHIBITION) | C (C = <50% INHIBITION)
7 | O=C1c2cnc3[nH]ncc3c2C(=O)N1CCCc1cccnc1 [Example 87, 7-(3-pyridin-3-ylpropyl)pyrazolo[3,4-b]pyrrolo[3,4-d]pyridine-6,8(3H,7H)-dione] | C (C = <50% INHIBITION) | C (C = <50% INHIBITION) | C (C = <50% INHIBITION) | C (C = <50% INHIBITION) | C (C = <50% INHIBITION) | C (C = <50% INHIBITION)
